Read-outs that look alike come from different tables or passages of the source.
Columns and labels:
[1] = test system: full length SMN2 minigene mRNA; test: SMN2 minigene mRNA splicing RT-qPCR assay in cultured cells; assay type: cell-based, human
Description: The term “EC1.5x concentration for production of full length SMN2 minigene mRNA” (or “EC1.5x minigene”) is defined as that concentration of test compound that is effective in increasing the amount of full length SMN2 minigene mRNA to a level 1.5-fold greater relative to that in vehicle-treated cells.
The reverse transcription-quantitative PCR-based (RT-qPCR) assay is used to quantify the level of the full length SMN2 minigene (referred to herein by the term “FL SMN2mini”) mRNA containing SMN2 exon 7 in a HEK293H cell line stably transfected with said minigene and treated with a test compound. Materials used and respective sources are listed below in Table 1.
The SMN2-A minigene construct was prepared as described in International Patent Application WO2009/151546A1 page 145 paragraph [00400] to page 147 paragraph [00412](incl. FIG. 1 and FIG. 3 therein).
HEK293H cells stably transfected with the SMN2-A minigene construct (10,000 cells/well) are seeded in 200 μL of cell culture medium (DMEM plus 10% FBS, with 200 μg/mL hygromycin) in 96-well flat-bottom plates and the plate is immediately swirled to ensure proper dispersal of cells and the formation of an even monolayer of cells. Cells are allowed to attach for 6 hours. Test compounds are serially diluted 3.16-fold in 100% DMSO to generate a 7-point concentration curve. A solution of test compound (1 μL, 200× in DMSO) is added to each cell-containing well and the plate is incubated for 24 hours in a cell culture incubator (37° C., 5% CO2, 100% relative humidity). 2 replicates are prepared for each test compound concentration. The cells are then lysed in the Cells-To-Ct lysis buffer and the lysate is stored at −80° C.
Full length SMN2-A minigene and GAPDH mRNA are quantified using the primers and probes referenced in WO2014/209841A2 on page 80 in Table 1. Primer SMN Forward A (SEQ ID NO.1) hybridizes to a nucleotide sequence in exon 7 (nucleotide 22 to nucleotide 40), primer SMN Reverse A (SEQ ID NO.2) hybridizes to a nucleotide sequence in the coding sequence of Firefly luciferase, SMN Probe A (SEQ ID NO.3) hybridizes to a nucleotide sequence in exon 7 (nucleotide 50 to nucleotide 54) and exon 8 (nucleotide 1 to nucleotide 21). The combination of these three oligonucleotides detects only SMN1 or SMN2 minigenes (RT-qPCR) and will not detect endogenous SMN1 or SMN2 genes.
The SMN forward and reverse primers are used at final concentrations of 0.4 μM. The SMN probe is used at a final concentration of 0.15 μM. The GAPDH primers are used at final concentrations of 0.2 μM and the probe at 0.15 μM.
The SMN2-minigene GAPDH mix (15 μL total volume) is prepared by combining 7.5 μL of 2×RT-PCR buffer, 0.4 μL of 25×RT-PCR enzyme mix, 0.75 μL of 20×GAPDH primer-probe mix, 4.0075 μL of water, 2 μL of 10-fold diluted cell lysate, 0.06 μL of 100 μM SMN forward primer, 0.06 μL of 100 μM SMN reverse primer, and 0.225 μL of 100 μM SMN probe.
PCR is carried out at the following temperatures for the indicated time: Step 1: 48° C. (15 min); Step 2: 95° C. (10 min); Step 3: 95° C. (15 sec); Step 4: 60° C. (1 min); then repeat Steps 3 and 4 for a total of 40 cycles.
Each reaction mixture contains both SMN2-A minigene and GAPDH primers/probe sets (multiplex design), allowing simultaneous measurement of the levels of two transcripts.
The increase in the abundance of the FL SMN2mini mRNA relative to that in cells treated with vehicle control is determined from real-time PCR data using a modified ΔΔCt method (as described in Livak and Schmittgen, Methods, 2001, 25:402-8). The amplification efficiency E is calculated from the slope of the amplification curve for FL SMN2mini and GAPDH individually. The abundance of FL SMN2mini and GAPDH mRNA are then calculated as (1+E)^−Ct, where Ct is the threshold value for each amplicon. The abundance of FL SMN2mini mRNA is normalized to GAPDH mRNA abundance. […]

[2] = test system: splicing events and expression levels of genes; test: Transcriptional profiling analysis; assay type: cell-based
Description: The specific function of STRN3, SLC25A17, and GGCT and consequences of their dysregulation have not been elucidated so far. These three genes are also consistently found to be affected at the higher dose (5-fold higher than the EC90), a dose used in order to illustrate the maximum effect of this compound. Splicing events of 11 genes, including the genes FoxM1 and MADD, were affected at the higher dose but not by the lower dose. FoxM1 and MADD have been described as being involved in cell cycle regulation and apoptosis, respectively.

FoxM1 = test: Alternative splicing of FoxM1 in SMA Type I patient fibroblasts (RT-qPCR); assay type: cell-based; settings: Homo sapiens, Fibroblast, 24 hours
Description: FIG. 5. Alternative Splicing of FoxM1 in vitro SMA Type I patient fibroblasts were treated with the compound of Example 20 for 24 hours, and FoxM1 full-length (FL) and exon 9-lacking (Δ9) mRNAs were analyzed by RT-qPCR. Data represent means SEM of 6 repetitions and are expressed as fold change vs. untreated controls.
FoxM1, a gene alternatively spliced by other splicing modifier compounds, encodes a cell cycle regulator. […] 2007 February; 3(1):1-3. Laoukili et al, Biochim Biophys Acta. 2007 January; 1775(1):92-102]. […] Increased expression of the FoxM1A isoform, together with decreased expression of FoxM1 isoforms lacking exon 9, has the capability to disturb and inhibit cell cycle progression if splicing changes are at a level that is biologically significant. Thus, the compound of Example 20 acts in a similar way on the SMN2 and FoxM1 splicing machinery, but with opposing outcomes with regard to protein function and at varying degrees. The EC50 for MADD, a gene also identified as affected by splicing modifiers including the compound of Example 20 at high concentrations and known to be involved in apoptotic processes, is not known.

For `Cc1cn2nc(-c3cc(=O)n4cc(N5CCNC6(CC6)C5)ccc4n3)cc(C)c2n1` [Example 20, 7-(4,7-diazaspiro[2.5]octan-7-yl)-2-(2,8-dimethylimidazo[1,2-b]pyridazin-6-yl)pyrido[1,2-a]pyrimidin-4-one], the EC (1.5-fold increase) ([1]; Homo sapiens, HEK293-H, HEK293H cells stably transfected with SMN2-A minigene, 24 hours, 7-point concentration curve, read-out: EC1.5x minigene) was 0.0047 ± 0.0007 µM, the “maximum induction of SMN2 minigene full length mRNA” value ([1]; cells expressing the SMN2 minigene) was 20 fold and the “number of genes whose expression levels were changed (p<0.01)” value ([2]; 121 nM dose) was 0. The “genes whose splicing events were affected” value ([2]; 121 nM, compared to control) was “STRN3, SLC25A17 and GGCT”, the “number of genes whose splicing events were affected at the higher dose but not by the lower dose” value ([2]; higher dose, 5-fold higher than the EC90, including FoxM1 and MADD) was 11 and the EC90 ([2]; read-out: EC90 (therapeutically relevant concentration)) was 121 nM. For the same compound, the EC50 (FoxM1; read-out: EC50 for FoxM1 FL mRNA) was 67 ± 32 nM and the EC50 (FoxM1; read-out: EC50 for FoxM1 Δ9 mRNA) was 139 ± 43 nM.
